Assay results: ChEMBL document CHEMBL6127034, “Design, synthesis and biological evaluation of a novel PAK1 degrader for the treatment of triple negative breast cancer” (Bioorg Med Chem, 2024)
The source made the active and inactive calls. No cut-off for these calls is given here.

Test system: MDA-MB-231
Assay: Induction of apoptosis in human MDA-MB-231 cells xenografted in BALB/c mouse assessed as increase in cleaved caspase-3 level at 20 mg/kg, ip qd for 12 days by Western blot analysis
Format: functional, organism-based
Settings: time 12.0 day

For `Cc1ncsc1-c1ccc([C@H](C)NC(=O)[C@@H]2C[C@@H](O)CN2C(=O)[C@@H](NC(=O)CCc2cn(CCCCCCCn3c(=O)c(-c4ccc(Cl)cc4Cl)cc4cnc(NC5CC5)nc43)nn2)C(C)(C)C)cc1`, the Activity was “Active”.
